# Tested on: lung cancer cell CRL-5802
# Assay: Cytotoxicity test of the medical composition and of camptothecin (MTT)
# Format: cell-based
# Settings: CRL-5802 cells, camptothecin concentration 1 μg/mL, treatment time 24 hours
# Method: 5000 cells/well of CRL-5802 were placed in a 96-well plate containing 100 μL of DMEM, followed by cultivation for 24 hours at 37° C. and 5% CO2. The cell culture medium was periodically replaced during the cultivation period. Thereafter, the medical composition described in the section of “Preparation of medical composition” was mixed with DMEM to prepare an original solution having a concentration of 250 μg/mL (the concentration of camptothecin was 10 μg/mL). The original solution was diluted with DMEM to obtain six diluted solutions such that the concentrations of camptothecin in the six diluted solutions were respectively 4 μg/mL, 2 μg/mL, 1 μg/mL, 0.2 μg/mL, 0.1 μg/mL and 0.04 μg/mL. The original solution and the six diluted solutions were added into the respective wells containing cell s such that the final concentrations of camptothecin were adjusted to 5 μg/mL, 2 μg/mL, 1 μg/mL, 0.5 μg/mL, 0.1 μg/mL, 0.05 μg/mL, and 0.02 μg/mL respectively (experimental groups). The cells in the control group were cultured with DMEM without addition of the medical composition. The cells were further cultivated for 24 hours. […] The absorbance of each of the wells containing cells at 490 nm was recorded, thereby calculating the cell survival rate based on the aforesaid equation. […]
compound,measurement,value
CC[C@@]1(O)C(=O)OCc2c1cc1n(c2=O)Cc2cc3ccccc3nc2-1 [camptothecin],cell survival rate,30%

# Source: patent US20120264830A1, “CHONDROITIN SULFATE-POLYCAPROLACTONE COPOLYMER, METHOD FOR PREPARING THE SAME AND APPLICATION THEREOF” (KAOHSIUNG MEDICAL UNIVERSITY, priority 2011, published 2012)
